The results in this text go back to patent US12516022B2, “Derivatives of aryl hydrocarbon receptor agonists” (AZORA THERAPEUTICS, INC., priority 2021, dated 2026).

Molecules are shown by their SMILES.

A short description of this data set: Time course of conversion to indirubin in FaSSGF at 37° C.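 As to all read-outs here: compound incubated in fasted state simulated gastric fluid, species in samples quantified by UPLC-MS with UV (210–400 nm) and ELS detection.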 The format is physicochemical. The following applies: FaSSGF (Example 4; table title prints FaSSIF) 37° C.; for Conversion to indirubin: over a 24 hour period.

Consider `O=C1/C(=C2/C(=O)N(C(=O)NC3CCOCC3)c3ccccc32)Nc2ccccc21` [drawing 278], for which the Conversion to indirubin was 0-20%. Besides, for the setting “15 min”, the indirubin was determined as 7%, the indirubin methylene alcohol stood at 0% and the “starting material (prodrug compound)” value worked out at 69%. Besides, where the note is “30 min”, the indirubin is on record as 12%, the indirubin methylene alcohol is given as 0% and the “starting material (prodrug compound)” value amounted to 61%. Further, where the note is “1 h”, the indirubin is recorded as 11%, the indirubin methylene alcohol is reported as 0% and the “starting material (prodrug compound)” value was determined as 82%. Where the note is “2 h”, the indirubin was 9%, the indirubin methylene alcohol amounted to 0% and the “starting material (prodrug compound)” value was 58%. Also, for the setting “24 h”, the indirubin amounted to 10%, the indirubin methylene alcohol is 0% and the “starting material (prodrug compound)” value was 86%.
For the molecule `O=C1/C(=C2/C(=O)N(CN3CCCCC3)c3ccccc32)Nc2ccccc21` [drawing 269], the Conversion to indirubin is recorded as 80-100%. In addition, under “15 min”, the indirubin turned out to be 99%, the indirubin methylene alcohol is given as 0% and the “starting material (prodrug compound)” value was 1%. For the same molecule, where the note is “30 min”, the indirubin was found to be 99%, the indirubin methylene alcohol is reported as 0% and the “starting material (prodrug compound)” value stood at 1%. Under “1 h”, the indirubin is 99%, the indirubin methylene alcohol stood at 0% and the “starting material (prodrug compound)” value is reported as 1%. Besides, where the note is “2 h”, the indirubin was 99%, the indirubin methylene alcohol was 0% and the “starting material (prodrug compound)” value is listed as 1%. Further, where the note is “24 h”, the indirubin was 99%, the indirubin methylene alcohol stood at 0% and the “starting material (prodrug compound)” value is given as 1%.
Consider `O=C1/C(=C2/C(=O)N(CN3CCCC3)c3ccccc32)Nc2ccccc21` [drawing 270], for which the Conversion to indirubin is on record as 80-100%. Moreover, where the note is “15 min”, the indirubin was 100%, the indirubin methylene alcohol is 0% and the “starting material (prodrug compound)” value was 0%. For the same molecule, where the note is “30 min”, the indirubin is recorded as 100%, the indirubin methylene alcohol was 0% and the “starting material (prodrug compound)” value is on record as 0%. Also, under “1 h”, the indirubin is reported as 100%, the indirubin methylene alcohol is given as 0% and the “starting material (prodrug compound)” value came to 0%. In addition, where the note is “2 h”, the indirubin is on record as 100%, the indirubin methylene alcohol is on record as 0% and the “starting material (prodrug compound)” value came out at 0%. Also, for the setting “24 h”, the indirubin turned out to be 99%, the indirubin methylene alcohol worked out at 1% and the “starting material (prodrug compound)” value turned out to be 0%.
Consider `CN(C)CCN(CCN(C)C)CN1C(=O)/C(=C2\Nc3ccccc3C2=O)c2ccccc21` [drawing 271], for which the Conversion to indirubin is reported as 80-100%. For the setting “15 min”, the indirubin is recorded as 90%, the indirubin methylene alcohol came to 5% and the “starting material (prodrug compound)” value is reported as 4%. Moreover, for the setting “30 min”, the indirubin came out at 94%, the indirubin methylene alcohol amounted to 4% and the “starting material (prodrug compound)” value turned out to be 2%. Further, under “1 h”, the indirubin was 87%, the indirubin methylene alcohol came to 9% and the “starting material (prodrug compound)” value came to 3%. For the setting “2 h”, the indirubin is listed as 91%, the indirubin methylene alcohol is given as 8% and the “starting material (prodrug compound)” value is on record as 2%. Under “24 h”, the indirubin was found to be 90%, the indirubin methylene alcohol amounted to 9% and the “starting material (prodrug compound)” value is on record as 1%.
Turning to `O=C1/C(=C2/C(=O)N(CN3CCC(F)(F)CC3)c3ccccc32)Nc2ccccc21` [drawing 280], the Conversion to indirubin is on record as 0-20%.
`CN(C)CCN(C)CN1C(=O)/C(=C2\Nc3ccccc3C2=O)c2ccccc21` [drawing 268]: the Conversion to indirubin was 80-100%. Where the note is “15 min”, the indirubin is 93%, the indirubin methylene alcohol is reported as 6% and the “starting material (prodrug compound)” value came out at 0%. Under “30 min”, the indirubin came out at 93%, the indirubin methylene alcohol came out at 6% and the “starting material (prodrug compound)” value came out at 0%. Moreover, for the setting “1 h”, the indirubin was determined as 92%, the indirubin methylene alcohol amounted to 7% and the “starting material (prodrug compound)” value was found to be 0%. For the same molecule, where the note is “2 h”, the indirubin is listed as 95%, the indirubin methylene alcohol came to 1% and the “starting material (prodrug compound)” value is listed as 0%. For the setting “24 h”, the indirubin stood at 95%, the indirubin methylene alcohol came out at 5% and the “starting material (prodrug compound)” value is listed as 0%.
On to `O=C1/C(=C2/C(=O)N(CN3CCC3)c3ccccc32)Nc2ccccc21` [drawing 275], for which the Conversion to indirubin is listed as 20-40%. Besides, under “15 min”, the indirubin worked out at 25%, the indirubin methylene alcohol is reported as 2% and the “starting material (prodrug compound)” value stood at 71%. Where the note is “30 min”, the indirubin turned out to be 26%, the indirubin methylene alcohol was 4% and the “starting material (prodrug compound)” value came to 70%. For the setting “1 h”, the indirubin is given as 25%, the indirubin methylene alcohol was 2% and the “starting material (prodrug compound)” value was 71%. Where the note is “2 h”, the indirubin is listed as 24%, the indirubin methylene alcohol came to 2% and the “starting material (prodrug compound)” value is given as 71%. Where the note is “24 h”, the indirubin was found to be 23%, the indirubin methylene alcohol turned out to be 3% and the “starting material (prodrug compound)” value worked out at 74%.
As to `CNCCNC(=O)N1C(=O)/C(=C2\Nc3ccccc3C2=O)c2ccccc21.Cl` [drawing 279], the Conversion to indirubin was 0-20%. Also, under “15 min”, the indirubin is listed as 0%, the indirubin methylene alcohol is recorded as 0% and the “starting material (prodrug compound)” value was 100%. Under “30 min”, the indirubin is recorded as 0%, the indirubin methylene alcohol is on record as 0% and the “starting material (prodrug compound)” value is 100%. For the setting “1 h”, the indirubin was determined as 0%, the indirubin methylene alcohol is on record as 0% and the “starting material (prodrug compound)” value turned out to be 100%. Also, for the setting “2 h”, the indirubin is on record as 0%, the indirubin methylene alcohol stood at 0% and the “starting material (prodrug compound)” value worked out at 100%. In addition, under “24 h”, the indirubin is recorded as 0%, the indirubin methylene alcohol stood at 0% and the “starting material (prodrug compound)” value was 100%.
Turning to `O=C1/C(=C2/C(=O)N(CN3CCOCC3)c3ccccc32)Nc2ccccc21` [drawing 276], the Conversion to indirubin was 20-40%. Moreover, for the setting “15 min”, the indirubin is on record as 7%, the indirubin methylene alcohol was 0% and the “starting material (prodrug compound)” value came to 89%. Moreover, under “30 min”, the indirubin turned out to be 8%, the indirubin methylene alcohol is 0% and the “starting material (prodrug compound)” value was determined as 85%. In addition, under “1 h”, the indirubin is reported as 10%, the indirubin methylene alcohol is on record as 5% and the “starting material (prodrug compound)” value was found to be 85%. Moreover, under “2 h”, the indirubin is recorded as 11%, the indirubin methylene alcohol was determined as 3% and the “starting material (prodrug compound)” value came to 80%. For the same molecule, for the setting “24 h”, the indirubin is on record as 29%, the indirubin methylene alcohol was found to be 3% and the “starting material (prodrug compound)” value was determined as 68%.
For `CC(=O)N1CCN(CN2C(=O)/C(=C3\Nc4ccccc4C3=O)c3ccccc32)CC1` [drawing 281], the Conversion to indirubin was 0-20%. Under “15 min”, the indirubin is listed as 4%, the indirubin methylene alcohol stood at 4% and the “starting material (prodrug compound)” value is listed as 92%. Moreover, under “30 min”, the indirubin is listed as 3%, the indirubin methylene alcohol is recorded as 0% and the “starting material (prodrug compound)” value turned out to be 97%. Where the note is “1 h”, the indirubin stood at 4%, the indirubin methylene alcohol was determined as 4% and the “starting material (prodrug compound)” value amounted to 87%. Moreover, where the note is “2 h”, the indirubin is 3%, the indirubin methylene alcohol was found to be 0% and the “starting material (prodrug compound)” value worked out at 97%. Also, for the setting “24 h”, the indirubin amounted to 0%, the indirubin methylene alcohol is 0% and the “starting material (prodrug compound)” value is 100%.
Regarding `CN(C)C1CCN(CN2C(=O)/C(=C3\Nc4ccccc4C3=O)c3ccccc32)CC1` [drawing 272], the Conversion to indirubin is given as 60-80%. In addition, where the note is “15 min”, the indirubin is given as 51%, the indirubin methylene alcohol was found to be 5% and the “starting material (prodrug compound)” value was determined as 41%. Under “30 min”, the indirubin was 55%, the indirubin methylene alcohol is 5% and the “starting material (prodrug compound)” value was 36%. For the same molecule, where the note is “1 h”, the indirubin amounted to 44%, the indirubin methylene alcohol turned out to be 10% and the “starting material (prodrug compound)” value was found to be 46%. Where the note is “2 h”, the indirubin came to 44%, the indirubin methylene alcohol was 10% and the “starting material (prodrug compound)” value is reported as 46%. Also, under “24 h”, the indirubin was 61%, the indirubin methylene alcohol was 1% and the “starting material (prodrug compound)” value is recorded as 31%.
For the molecule `CCN(CC)CN1C(=O)/C(=C2\Nc3ccccc3C2=O)c2ccccc21` [drawing 267], the Conversion to indirubin was 80-100%. Moreover, for the setting “15 min”, the indirubin is recorded as 100%, the indirubin methylene alcohol is 0% and the “starting material (prodrug compound)” value turned out to be 0%. Besides, for the setting “30 min”, the indirubin was 100%, the indirubin methylene alcohol came out at 0% and the “starting material (prodrug compound)” value was 0%. For the setting “1 h”, the indirubin is given as 100%, the indirubin methylene alcohol was found to be 0% and the “starting material (prodrug compound)” value is on record as 0%. Besides, under “2 h”, the indirubin was 100%, the indirubin methylene alcohol turned out to be 0% and the “starting material (prodrug compound)” value is listed as 0%. Where the note is “24 h”, the indirubin was 100%, the indirubin methylene alcohol came out at 0% and the “starting material (prodrug compound)” value is 0%.
